The values below come from patent US20080175813A1, “NOVEL ATTRACTANTS FOR VESPID WASPS” (PHEROTECH INTERNATIONAL INC., priority 2007, published 2008).

Holding throughout (type): in vivo
For assay [1], the system named is Vespula pennsylvanica. Kind of assay: Experiment 2: field trapping, apple pomace vs chopped dried apples as supplements for heptyl butyrate. As to conditions: Experiment 2, N = 15, 15-18 Sep. 2006, 12 g supplement in plastic mesh in capture water. The method, then:
The experiment was run for 3 days in Tilbury Industrial Park in Delta, B.C. from 8-11 Sep. 2006. Large 2 L Oak Stump traps, with a single transverse entry tube, and 300-350 mL of water with 2-3 drops of liquid detergent added in the bottom of the interior chamber, were hung at eye level from trees or woody bushes. Traps for each of three treatments were deployed in 12 randomized complete blocks, with ≧5 m between traps. […] Experiment 2, with 15 replicates, was run at the same location as Experiment 1 from 15-18 Sep. 2006. […] The apple pomace was obtained from Agrisource Food Products Inc., Richmond, B.C.

For assay [2], the system named is Vespula pennsylvanica. As to the kind of experiment: Experiment 1: field trapping in Oak Stump traps, chopped dried apples as supplement for heptyl butyrate. The conditions noted are these: Experiment 1, N = 12, Oak Stump traps, 8-11 Sep. 2006, 12 g chopped dried apples in capture water. The procedure:
The experiment was run for 3 days in Tilbury Industrial Park in Delta, B.C. from 8-11 Sep. 2006. Large 2 L Oak Stump traps, with a single transverse entry tube, and 300-350 mL of water with 2-3 drops of liquid detergent added in the bottom of the interior chamber, were hung at eye level from trees or woody bushes. Traps for each of three treatments were deployed in 12 randomized complete blocks, with ≧5 m between traps. […] Almost all captured wasps were western yellowjackets, Vespula pennsylvanica. The very few Polistes spp. captured (no more than two per trap, with most traps having none) were not counted.

For assay [3], the system named is Vespula pennsylvanica. Kind of assay: Experiment 3: field trapping, wet vs dry apple pomace as supplements for heptyl butyrate. As to conditions: Experiment 3, N = 12, 21-22 Sep. 2006, 12 g apple pomace in mesh bag, suspended dry or immersed in capture water.
Procedure: The experiment ran from 21-22 Sep. 2006, at the same location as the first two experiments. All other experimental conditions were the same as above. Twelve replicates of three treatments were tested: 1) heptyl butyrate alone, 2) heptyl butyrate plus a mesh bag containing 12 g of apple pomace suspended dry from the trap lid along with the heptyl butyrate lure, and 3) heptyl butyrate plus 12 g of apple pomace in a mesh bag immersed in the water-detergent capture medium in the bottom of the interior chamber.
For assay [4], the system named is Vespula pennsylvanica. As to the kind of experiment: Experiment 4: field trapping, apple pomace vs apple juice as supplements for heptyl butyrate. The conditions noted are these: Experiment 4, N = 12, set up 29 Sep. 2006, collections Sept 30, Oct 2, Oct 4; 5 g apple pomace; apple juice replacing capture water.
Source text: A final 12-replicate experiment was set up as above, and compared wet apple pomace with apple juice. The three treatments were: 1) heptyl butyrate alone, 2) heptyl butyrate plus apple juice, and 3) heptyl butyrate plus apple pomace. In the second treatment, apple juice (Sun-Rype Products Ltd., Kelowna, B.C.) with 2-3 drops of detergent added replaced the water-detergent capture medium in the bottom of the interior trap chamber. In the third treatment, the amount of apple pomace in the plastic mesh bag immersed in the water-detergent capture medium in the bottom of the interior chamber was reduced to 5 g, which is a realistic operational dose. The experiment was set up on 29 Sep. 2006, and captured wasps were removed from the traps and counted on September 30, October 2 and October 4.

Consider `CCCCCCCOC(=O)CCC` [Heptyl butyrate alone, heptyl butyrate], for which the “MEAN NUMBER OF WASPS CAPTURED ± SE” value is 15.7 ± 3.4 ab in assay [1]; 72.8 ± 13.9 b in assay [2]; 73 in assay [2] (listed as heptyl butyrate); 9.8 ± 2.0 ab in assay [3]; 24.3 ± 6.7 a in assay [4].
